Source: paper PMC5583658, “6,7-dimethoxy-1,2,3,4-tetrahydro-isoquinoline-3-carboxylic acid attenuates heptatocellular carcinoma in rats with NMR-based metabolic perturbations” (Future Science OA, 2017)

Test system: diethylnitrosamine-induced hepatocarcinogenic rats
Assay: 1H-NMR-based serum metabolic profiling
Type: in vivo, albino Wistar rats
Settings: rat serum
Protocol: All animals were randomly divided into five groups of six animals each. Drugs were suspended in 0.25% CMC, subjected to 28 days’ treatment orally and divided as follows: Group I: 0.25% CMC (2 ml/kg), Group II: DEN (8 mg/kg, intraperitoneally), Group III: DEN+5-fluorouracil (5-FU, 10 mg/kg, intraperitoneally), Group IV: DEN+M1 (50 mg/kg, orally) and Group V: DEN+M1 (100 mg/kg, orally). The procedure to induce HCC was adopted from a paper by Song et al. where it is shown that DEN produces HCC at 8 mg/kg intraperitoneal injection for 28 days to albino Wistar rats. After initial 1 week of adaptive inhabitation, all rats of group II–V were administered with DEN (8 mg/kg, intraperitoneally) for 28 days. After 28 days, 5-FU and M1 were given for 15 days as mentioned above for group III–V. At the end of the experimental period, animals were sacrificed by cervical decapitation and livers were dissected out immediately, rinsed in ice cold saline and stored at -20°C for further studies. The serum was collected, processed and stored for further analysis.
All serum samples were thawed at room temperature, 250 μl of serum was taken and mixed with 250 μl of 0.9% saline sodium-phosphate buffer of strength 50 mM, pH 7.4 prepared in D2O. Then, the samples were centrifuged at 10,000 rpm for 5 min to remove any precipitates before acquiring the NMR data. A total 400 μl of the supernatant sample was used in 5 mm NMR tubes (Wilmad Glass, USA) for data acquisition with a co-axial insert containing the known concentration of TSP (sodium salt of 3-trimethylsilyl-(2,2,3,3-d4)-propionic acid) i.e. 0.1% was used as external standard reference to aid metabolite quantification for NMR experiment. Deuterium oxide (D2O; as a co-solvent and to provide a deuterium field/frequency lock) and sodium salt of trimethylsilylpropionic acid-d4 (TSP) used for NMR experiments, were purchased from Sigma-Aldrich (RI, USA).
All NMR spectra were recorded at 298 K on Bruker Biospin Avance-III 800 MHz NMR spectrometer operating at proton frequency of 800.21 MHz, equipped with CryoProbe and an actively shielded gradient unit with a maximum gradient-strength output of […]. The raw NMR data were processed in Topspin-2.1 (Bruker NMR data Processing Software). For each serum sample, one-dimensional ^1H-NMR and diffusion edited ^1H NMR spectra were recorded using the Carr–Purcell–Meiboom–Gill (CPMG) pulse sequence (cpmgpr1d, standard Bruker pulse program) with pre-saturation of the water peak through irradiating it continuously during the recycle delay (RD) of 5 sec, and the bipolar pulse pair longitudinal eddy current delay (BPP-LED) sequence, respectively. Each CPMG spectrum consisted of the accumulation of 128 scans and lasted for approximately 15 minutes. To remove broad signals from triglycerides, proteins, cholesterols and phospholipids, a total spin–spin relaxation time of 60 ms (n = 300 and 2τ=[…]) with a line broadening factor of 0.3 Hz was applied. For diffusion edited (DE)^1H NMR pulse sequence, the square gradients of 70% of the maximum gradient strength (56 G/cm) and 2 ms duration (followed by a delay of 200 μs to allow for the decay of eddy currents) were used. Diffusion time of 120 ms was used to attenuate the signals from low molecular weight compounds without affecting the lipid signals. All the spectra were processed using Topspin-2.1 (Bruker NMR data Processing Software) using standard Fourier Transformation (FT) procedure following manual phase and baseline-correction. Prior to FT, each FID was zero-filled to 4096 data points and a sine-bell apodisation function was applied. After FT, the chemical shifts were referenced internally to methyl peak of L-lactate (at δ=1.33 ppm). All recorded spectra were visually inspected for acceptability and subjected to multivariate statistical analysis to identify the altered metabolic pattern. […]

SMILES: COc1cc2c(cc1OC)CC(C(=O)O)NC2 (stereo not shown) [M1, 6,7-dimethoxy-1,2,3,4-tetrahydro-isoquinoline-3-carboxylic acid]
- Variation with respect to DEN: Acac (chemical shift 2.28) (DEN+M1 50 mg/kg orally): ↑
- Variation with respect to DEN: Ace (chemical shift 1.92) (DEN+M1 50 mg/kg orally): ↓
- Variation with respect to DEN: Acet (chemical shift 2.23) (DEN+M1 50 mg/kg orally): ↑
- Variation with respect to DEN: Ala (chemical shift 1.48) (DEN+M1 50 mg/kg orally): ↓
- Variation with respect to DEN: Betaine (chemical shift 3.265) (DEN+M1 50 mg/kg orally): ↓
- Variation with respect to DEN: Chol (chemical shift 3.22) (DEN+M1 50 mg/kg orally): ↓
- Variation with respect to DEN: Cit (chemical shift 2.52) (DEN+M1 50 mg/kg orally): ↑
- Variation with respect to DEN: Cr (chemical shift 3.03) (DEN+M1 50 mg/kg orally): ↑
- Variation with respect to DEN: L1 (LDL) (chemical shift 0.83–0.87) (DEN+M1 50 mg/kg orally): ↓
- Variation with respect to DEN: L2 (VLDL) (chemical shift 0.87–0.90) (DEN+M1 50 mg/kg orally): ↑
- Variation with respect to DEN: L3 (LDL) (chemical shift 1.23–1.27) (DEN+M1 50 mg/kg orally): ↓
- Variation with respect to DEN: L4 (VLDL) (chemical shift 1.27–1.30) (DEN+M1 50 mg/kg orally): ↑
- Variation with respect to DEN: L6 (chemical shift 2.00) (DEN+M1 50 mg/kg orally): ↓
- Variation with respect to DEN: L9 (chemical shift 5.28) (DEN+M1 50 mg/kg orally): ↓
- Variation with respect to DEN: Leu (chemical shift 0.96) (DEN+M1 50 mg/kg orally): ↑
- Variation with respect to DEN: Lys (chemical shift 1.89) (DEN+M1 50 mg/kg orally): ↓
- Variation with respect to DEN: NAG (chemical shift 2.02) (DEN+M1 50 mg/kg orally): ↑
- Variation with respect to DEN: OAG (chemical shift 2.13) (DEN+M1 50 mg/kg orally): ↑
- Variation with respect to DEN: Pyr (chemical shift 2.37) (DEN+M1 50 mg/kg orally): ↓
- Variation with respect to DEN: Tyr (chemical shift 6.89) (DEN+M1 50 mg/kg orally): ↓
- Variation with respect to DEN: Acac (chemical shift 2.28) (DEN+M1 100 mg/kg orally): ↑
- Variation with respect to DEN: Ace (chemical shift 1.92) (DEN+M1 100 mg/kg orally): ↓
- Variation with respect to DEN: Acet (chemical shift 2.23) (DEN+M1 100 mg/kg orally): ↑
- Variation with respect to DEN: Ala (chemical shift 1.48) (DEN+M1 100 mg/kg orally): ↓
- Variation with respect to DEN: Betaine (chemical shift 3.265) (DEN+M1 100 mg/kg orally): ↓
- Variation with respect to DEN: Chol (chemical shift 3.22) (DEN+M1 100 mg/kg orally): ↓
- Variation with respect to DEN: Cit (chemical shift 2.52) (DEN+M1 100 mg/kg orally): ↑
- Variation with respect to DEN: Cr (chemical shift 3.03) (DEN+M1 100 mg/kg orally): ↓
- Variation with respect to DEN: ILeu (chemical shift 1.00) (DEN+M1 100 mg/kg orally): ↑
- Variation with respect to DEN: L1 (LDL) (chemical shift 0.83–0.87) (DEN+M1 100 mg/kg orally): ↓
- Variation with respect to DEN: L2 (VLDL) (chemical shift 0.87–0.90) (DEN+M1 100 mg/kg orally): ↑
- Variation with respect to DEN: L4 (VLDL) (chemical shift 1.27–1.30) (DEN+M1 100 mg/kg orally): ↑
- Variation with respect to DEN: Leu (chemical shift 0.96) (DEN+M1 100 mg/kg orally): ↑
- Variation with respect to DEN: Lys (chemical shift 1.89) (DEN+M1 100 mg/kg orally): ↓
- Variation with respect to DEN: NAG (chemical shift 2.02) (DEN+M1 100 mg/kg orally): ↑
- Variation with respect to DEN: Pyr (chemical shift 2.37) (DEN+M1 100 mg/kg orally): ↓
- Variation with respect to DEN: Tyr (chemical shift 6.89) (DEN+M1 100 mg/kg orally): ↓
